These results are taken from patent publication US8778882B2, “Agent for strengthening calcium containing tissue and use thereof” (Hayashibara Co., Ltd., priority 2002, dated 2014).

The test system of assay [1] is mouse pre-osteoblastic cell MC3T3-E1. Put plainly: Alkaline phosphatase activity in mouse pre-osteoblastic cells. Type of assay: cell-based. The note with it: for activity at 20 µM: Mus musculus; for alkaline phosphatase activity in vitro: glycosides. On the procedure: To increase number of osteoblastic cells having calcium-deposition activity is important for increasing bone mass. […] The activity is at low level in pre-osteoblastic cells and at high level in osteoblastic cells differentiated form the pre-osteoblastic cells. […] Since final ethanol concentration in the medium is 0.2% (v/v), α-MEM medium containing 0.2% (v/v) ethanol was prepared as a negative control. The cells were inoculated for eight days as changing the medium therewith to fresh medium with or without each sample per three days. Alkaline phosphatase activity was measured using “Alkaline Phospha B-Test Wako” (commercialized by Wako Pure Chemical Industries, Osaka, Japan) according with Kajii et al (Archives of Oral Biology, Vol. 44, pp. 233-241, (1999)). Briefly, to the above described mouse pre-osteoblastic cells washed with 1 ml of 0.25 M sucrose solution three times after removing the medium were added 0.45 ml of 50 mM carbonate salt buffer (pH9.8) containing 1 mM magnesium chloride and 50 mM sucrose and 0.05 ml of 3.4 mM disodium p-nitrophenyl phosphate in due course. The mixture was incubated at 25° C. for five minutes and admixed with 1.5 ml of 0.6N sodium hydroxide as a reaction terminator. Absorbance 405 nm of p-nitrophenol generated by alkaline phosphatase in the resulting mixture was measured, and the obtained values were used as values as alkaline phosphatase activity. […] The experiment was performed by the method according to Experiment 1 except that culture day in the medium containing each sample was three, six or nine, and concentration of each sample was 5, 10 or 20 μM. […] As a negative control, mediums containing ethanol in the above concentration were prepared for calculating relative activity to the activity of each control.

The test system is the same in assay [2]. Put plainly: Calcium deposition amount by Calcium C Test Wako. The settings on record: for activity at 20 µM: Mus musculus, MC3T3-E1; for activity at 20 µM / Relative Calcium Deposition Amount (%): flavonoid comparison, Calcium C Test Wako, relative to 0.2% (v/v) ethanol negative control; for calcium deposition in vitro: glycosides. Type of assay: cell-based. An excerpt:
Other flavonoid compounds than kaempferol or hesperetin were investigated where they have the same effect or not. Flavone (commercialized by Kanto Kagaku, Tokyo, Japan), apigenin (commercialized by Funakoshi, Co., Ltd., Tokyo, Japan), flavonol (commercialized by Tokyo Kasei Kogyo, Co., Ltd., Tokyo, Japan), quercetin (commercialized by Kanto Kagaku, Tokyo, Japan), kaempferol (commercialized by Funakoshi, Co., Ltd., Tokyo, Japan), rutin (commercialized by Kanto Kagaku, Tokyo, Japan), flavanone (commercialized by Kanto Kagaku, Tokyo, Japan), naringenin (commercialized by Ardrich Corporation), hesperetin (commercialized by Funakoshi, Co., Ltd., Tokyo, Japan), hesperidin (commercialized by Kanto Kagaku, Tokyo, Japan), chalcone (commercialized by Merk Corporation), fuloretin (commercialized by Sigma Corporation), catechin (commercialized by Sigma Corporation), ipriflavone (commercialized by Daito Corporation, Toyama, Japan), taxifolin (commercialized by Funakoshi, Co., Ltd., Tokyo, Japan), sulfuretin (commercialized by Funakoshi, Co., Ltd.; Tokyo, Japan), or cyanidin (commercialized by Funakoshi, Co., Ltd., Tokyo, Japan) was selected as test samples. Alkaline phosphatase activity was measured by the method of Experiment 1. Calcium deposition was measured by usual method using “Calcium C Test Wako” (commercialized by Wako Pure Chemical Industries, Osaka, Japan), briefly, cultured cells were washed with 1 ml of Dulbecco phosphate buffer saline three times after removing the medium. To the resultant was added 0.5 ml of 2N hydrochloric acid to resolve deposited calcium. To 5 μl of the resultant solution were added 0.5 ml of 0.88M monoethanolamine buffer (pH11) and 0.05 ml of 0.63 mM o-cresolphthalein complexone solution (binding to calcium ion to form chelate complex) containing 69 mM 8-quinolinol and mixed. Calcium amount per one hole of the plate was calculated by measuring absorbance 570 nm of the resultants and standardizing with a standard calcium solution. The judgement of alkaline phosphatase activity or calcium deposition amount of each sample was to calculate the relative activity or the relative calcium deposition amount to the negative control (only medium containing 0.2% (v/v) ethanol) and to compare each other.
The enhancement of calcium deposition between kaempferol and ipripfavone were compared. Test samples and their adding manner were same as Experiment 4. Calcium deposition amount was measured by usual method using “Calcium C Test Wako” (commercialized by Wako Pure Chemical Industries, Osaka, Japan); briefly, cultured cells were washed with 1 ml of Dulbecco phosphate buffer saline three times after removing the medium. To the resultant was added 0.5 ml of 2N hydrochloric acid to resolve deposited calcium. To 5 μl of the resolving solution were added 0.5 ml of 0.88M monoethanolamine buffer (pH11) and 0.05 ml of 0.63 mM o-cresolphthalein complexone solution (binding to calcium ion to form chelate complex) containing 69 mM 8-quinolinol and mixed, Calcium amount per one hole of the plate was calculated by measuring absorbance 570 nm of the resultants and standardizing with a standard calcium solution.
Kaempferol or hesperetin in combination with ipriflavone, or a kind of isoflavones, was investigated whether to enhance calcium deposition or not. Methods for preparing samples and culturing the cells were the same method described in Experiment 1 except culturing the cells for five days, Method for measuring calcium was the same method described in Experiment 3 and 5. Final ethanol concentration of the medium containing each sample was adjusted as same concentration.

In a further assay the test system is Rat Femur and Tibia. Put plainly: Enhancing calcium deposition in rat femur and tibia. Type of assay: in vivo. The settings on record: for Calcium Content Per One Dried Bone / Dried Bone Mass: rats fed sample in high sucrose feeding stuff for eight weeks; for calcium deposition in femur and tibia: rats, eight weeks feeding. The method, then: The experiment was performed using six three-weeks-aged female Wister rats per one group. The rats were fed with high sucrose feeding stuff containing ingredients listed Table 11 (In the Table, each value means “weight %”.) and one part by weight of each test sample; hesperetin (commercialized by Funakoshi, Co., Ltd., Tokyo, Japan), quercetin (commercialized by Tokyo Kasei Kogyo, Co., Ltd., Tokyo, Japan), α-glycosyl hesperidin (product name “αG HESPERIDINE”, commercialized by Hayashibara Shoji Inc., Okayama, Japan), α-glycosyl rutin (product name “αG RUTIN P”, commercialized by Hayashibara Shoji Inc., Okayama, Japan), or ipriflavone (commercialized by Daito Corporation, Toyama, Japan) (positive control). As a negative control, rats fed with feedstuff containing one part by weight of sucrose replacing test sample were prepared. The rats were allowed to freely take water. The rats were killed after eight weeks, and then, their femurs and tibias were excised. Each femur or tibia dried at 100° C. for about six hours was measured by electric even balance for high precision analysis (product name “HA180M/12QM”, commercialized by A & D Co, Ltd., Tokyo, Japan), and then, each bone was placed into a crucible and burned in an incinerator at 950° C. for six hours. The cinerary resultant was resolved in hydrochloric solution and provided for measuring calcium amount by atomic absorption photometer. Calcium amount per one dried bone was calculated and compared each other.

Where [3] appears, read: MC3T3-E1, flavonoid comparison, method of Experiment 1, relative to 0.2% (v/v) ethanol negative control.
Setting [4] is: 192 h, MC3T3-E1, 20 mM each compound (so in the source), eight days, relative to 0.2% (v/v) ethanol negative control.
Setting [5] is: flavonoid comparison, method of Experiment 1, relative to 0.2% (v/v) ethanol negative control.
Setting [6] is: MC3T3-E1, 20 mM each compound (so in the source), eight days, relative to 0.2% (v/v) ethanol negative control.

In the case of `O=c1c(O)c(-c2ccc(O)c(O)c2)oc2cc(O)cc(O)c12` [Quercetin], the results for the activity at 20 µM in assay [1] (setting [3]) and in assay [2] were 120% and 118%, respectively. Besides, the “Calcium Content Per One Dried Bone” value in the assay on Rat Femur and Tibia (Femur) was determined as 120.3 mg; in the assay with Rat Femur and Tibia (Tibia), 108.7 mg. The “Dried Bone Mass” value came to 0.456 g in the assay with Rat Femur and Tibia (Femur); 0.352 g with Rat Femur and Tibia (Tibia).
α-glycosyl rutin: the “alkaline phosphatase activity in vitro” value in assay [1] is “did not demonstrate”. The “calcium deposition in vitro” value in assay [2] was “did not demonstrate”. Also, in the assay with Rat Femur and Tibia (Femur), the “Calcium Content Per One Dried Bone” value is reported as 119.9 mg and the “Dried Bone Mass” value worked out at 0.439 g. In the assay with Rat Femur and Tibia (Tibia), the “Calcium Content Per One Dried Bone” value amounted to 107.7 mg and the “Dried Bone Mass” value is listed as 0.343 g. Besides, in the assay on Rat Femur and Tibia, the “calcium deposition in femur and tibia” value is “increase of calcium deposition content”.
For `O=c1cc(-c2ccccc2)oc2ccccc12` [Flavone], the values for the activity at 20 µM in assay [1] (setting [3]) and in assay [2] were 103% and 158%, respectively.
`Cn1c(=O)c2c(ncn2C)n(C)c1=O` [Caffein, caffein]: in assay [1] (setting [4]), the activity at 20 µM was found to be 100%.
Take `COc1ccc([C@@H]2CC(=O)c3c(O)cc(O[C@@H]4O[C@H](CO[C@@H]5O[C@@H](C)[C@H](O)[C@@H](O)[C@H]5O)[C@@H](O)[C@H](O)[C@H]4O)cc3O2)cc1O` [Hesperidin]: the “enhancement of alkaline phosphatase activity, daily course (FIG. 1)” value in assay [1] (5, 10 or 20 μM, culture day three, six or nine, relative to ethanol control) is “remarkable enhancement of alkaline phosphatase activity at third day”. Besides, the “Relative Alkaline Phosphatase Activity (%)” value in assay [1] (setting [5]) was 107%. Besides, the “alkaline phosphatase activity in vitro” value in assay [1] is “did not demonstrate”. In assay [2], the “Relative Calcium Deposition Amount (%)” value was 118% and the “calcium deposition in vitro” value is recorded as “did not demonstrate”. Besides, the “calcium deposition in femur and tibia” value in the assay with Rat Femur and Tibia is reported as “increase of calcium deposition content”.
With Phloretin, the “Relative Alkaline Phosphatase Activity (%)” value in assay [1] (setting [5]) was 109%. In assay [2], the “Relative Calcium Deposition Amount (%)” value is on record as 238%.
Turning to `O=c1cc(-c2ccc(O)cc2)oc2cc(O)cc(O)c12` [Apigenin], the activity at 20 µM in assay [1] (setting [3]) stood at 128%; in assay [2], 247%.
With `Cc1cc(=O)oc2cc(O)ccc12` [4-Methylumbelliferone], the “Relative Alkaline Phosphatase Activity (%)” value in assay [1] (setting [6]) worked out at 96%.
Turning to `O=c1c(O)c(-c2ccccc2)oc2ccccc12` [Flavonol], the activity at 20 µM stood at 139% in assay [1] (setting [3]) and 295% in assay [2].
On to `C[C@@H]1O[C@@H](OC[C@H]2O[C@@H](Oc3c(-c4ccc(O)c(O)c4)oc4cc(O)cc(O)c4c3=O)[C@H](O)[C@@H](O)[C@@H]2O)[C@H](O)[C@H](O)[C@H]1O` [Rutin], for which the “Relative Alkaline Phosphatase Activity (%)” value in assay [1] (setting [5]) was determined as 109%. Moreover, the “Relative Calcium Deposition Amount (%)” value in assay [2] is 74%.
Turning to tocopherol, the “Relative Alkaline Phosphatase Activity (%)” value in assay [1] (setting [6]) turned out to be 100%.
As for `O=C1/C(=C/c2ccc(O)c(O)c2)Oc2cc(O)ccc21` [Sulfuretin], the “Relative Alkaline Phosphatase Activity (%)” value in assay [1] (setting [5]) is given as 126%. For the same compound, in assay [2], the “Relative Calcium Deposition Amount (%)” value is on record as 157%.
Take `COc1cc(C=O)ccc1O` [Vanillin, vanillin]: in assay [1] (setting [4]), the activity at 20 µM is 89%.
As to `CC1(C)[C@@H](O[C@H]2O[C@H](C(=O)O)[C@@H](O)[C@H](O)[C@H]2O[C@@H]2O[C@H](C(=O)O)[C@@H](O)[C@H](O)[C@H]2O)CC[C@]2(C)[C@H]3C(=O)C=C4[C@@H]5C[C@@](C)(C(=O)O)CC[C@]5(C)CC[C@@]4(C)[C@]3(C)CC[C@@H]12` [Glycyrrizinic Acid], the “Relative Alkaline Phosphatase Activity (%)” value in assay [1] (setting [6]) turned out to be 97%.
Turning to `O=C1C[C@@H](c2ccc(O)cc2)Oc2cc(O)cc(O)c21` [Naringenin], the activity at 20 µM in assay [1] (setting [3]) was determined as 110%; in assay [2], 271%.
For `O=C(/C=C/c1ccccc1)c1ccccc1` [Chalcone], in that order: 105% and 104%.
Take `CC1=C(/C=C/C(C)=C/C=C/C(C)=C/C=C/C=C(C)/C=C/C=C(C)/C=C/C2=C(C)CCCC2(C)C)C(C)(C)CCC1` [β-Carotene, β-carotene]: the activity at 20 µM in assay [1] (setting [4]) was 81%.
`CC(C)Oc1ccc2c(=O)c(-c3ccccc3)coc2c1` [Ipriflavone, reference compound]: the “Relative Alkaline Phosphatase Activity (%)” value in assay [1] (setting [5]) was 114%. Besides, the “Relative Calcium Deposition Amount (%)” value in assay [2] stood at 263%. In addition, the “Calcium Content Per One Dried Bone” value was found to be 120.0 mg with Rat Femur and Tibia (Femur); 106.0 mg in the assay on Rat Femur and Tibia (Tibia). The “Dried Bone Mass” value with Rat Femur and Tibia (Femur) stood at 0.428 g; in the assay on Rat Femur and Tibia (Tibia) it was 0.338 g.
Turning to `O.Oc1cc(O)c2c(c1)O[C@H](c1ccc(O)c(O)c1)[C@@H](O)C2` [Catechin], in assay [1] (setting [5]), the “Relative Alkaline Phosphatase Activity (%)” value came to 118%. The “Relative Calcium Deposition Amount (%)” value in assay [2] came to 247%.
As for `CC1CCC(C(C)C)C(O)C1` (centres unmarked) [Menthol, menthol], the activity at 20 µM in assay [1] (setting [4]) is 95%.
In the case of `Oc1cc(O)c2cc(O)c(-c3ccc(O)c(O)c3)[o+]c2c1` [Cyanidin], in assay [1] (setting [5]), the “Relative Alkaline Phosphatase Activity (%)” value stood at 115%. Further, in assay [2], the “Relative Calcium Deposition Amount (%)” value is 216%.
With `O=C1CC(c2ccccc2)Oc2ccccc21` (centres unmarked) [Flavanone], the figures for the activity at 20 µM in assay [1] (setting [3]) and in assay [2] were 109% and 311%, respectively.
For `O=C1c2c(O)cc(O)cc2O[C@H](c2ccc(O)c(O)c2)[C@H]1O` [Taxifolin] the same measures were 98% and 234%.
